Laboratory results as given in PubChem BioAssay (NCI).
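Values below derive from 48-hour exposures of cells grown in 96-well plates, with endpoints linearly interpolated between the two concentrations bracketing the appropriate inhibition level. At the GI50, growth is halved. TGI denotes the concentration required for complete inhibition of growth.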

Legend:
Test in all cases: NCI anticancer screen, dose series, 48 h
NCI-H226 lung = tested on: NCI-H226 lung
TK-10 renal = tested on: TK-10 renal
NCI/ADR-RES ovarian = tested on: NCI/ADR-RES ovarian
PC-3 prostate = tested on: PC-3 prostate
BT-549 breast = tested on: BT-549 breast
SF-268 CNS = tested on: SF-268 CNS
SNB-75 CNS = tested on: SNB-75 CNS
HOP-92 NSCLC = tested on: HOP-92 NSCLC
SR leukemia = tested on: SR leukemia
A498 renal = tested on: A498 renal
HT29 colon = tested on: HT29 colon
A549 NSCLC = tested on: A549 NSCLC
NCI-H23 lung = tested on: NCI-H23 lung
SW-620 colon = tested on: SW-620 colon
OVCAR-5 ovarian = tested on: OVCAR-5 ovarian
T-47D breast = tested on: T-47D breast
RPMI-8226 leukemia = tested on: RPMI-8226 leukemia
IGROV1 ovarian = tested on: IGROV1 ovarian
UO-31 renal = tested on: UO-31 renal
SK-MEL-2 melanoma = tested on: SK-MEL-2 melanoma
SNB-19 CNS = tested on: SNB-19 CNS
MDA-MB-231 breast = tested on: MDA-MB-231 breast
CCRF-CEM leukemia = tested on: CCRF-CEM leukemia
ACHN renal = tested on: ACHN renal
DU-145 prostate = tested on: DU-145 prostate
SN12C renal = tested on: SN12C renal
RXF 393 renal = tested on: RXF 393 renal
786-0 renal = tested on: 786-0 renal
OVCAR-4 ovarian = tested on: OVCAR-4 ovarian
SF-295 CNS = tested on: SF-295 CNS
HS 578T breast = tested on: HS 578T breast
MOLT-4 leukemia = tested on: MOLT-4 leukemia
SF-539 CNS = tested on: SF-539 CNS
K-562 leukemia = tested on: K-562 leukemia
UACC-257 melanoma = tested on: UACC-257 melanoma
SK-MEL-28 melanoma = tested on: SK-MEL-28 melanoma
KM12 colon = tested on: KM12 colon
EKVX NSCLC = tested on: EKVX NSCLC
SK-MEL-5 melanoma = tested on: SK-MEL-5 melanoma
UACC-62 melanoma = tested on: UACC-62 melanoma
MDA-MB-435 = tested on: MDA-MB-435
HL-60(TB) leukemia = tested on: HL-60(TB) leukemia
SK-OV-3 ovarian = tested on: SK-OV-3 ovarian
CAKI-1 renal = tested on: CAKI-1 renal
NCI-H522 lung = tested on: NCI-H522 lung
HOP-62 NSCLC = tested on: HOP-62 NSCLC
MALME-3M melanoma = tested on: MALME-3M melanoma

Compound: CCCCCc1ccc(S(=O)(=O)Nc2cccc(-c3csc(NC(=O)CCCCCN4CCN(C)CC4)n3)c2)cc1
- GI50 (NCI-H226 lung): 2.55 µM
- TGI (NCI-H226 lung): 7.16 µM
- GI50 (TK-10 renal): 2.03 µM
- TGI (TK-10 renal): 4.51 µM
- GI50 (NCI/ADR-RES ovarian): 8.99 µM
- TGI (NCI/ADR-RES ovarian): 39.4 µM
- GI50 (PC-3 prostate): 2.2 µM
- TGI (PC-3 prostate): 6.42 µM
- GI50 (BT-549 breast): 2.29 µM
- TGI (BT-549 breast): 9.55 µM
- GI50 (SF-268 CNS): 1.86 µM
- TGI (SF-268 CNS): 3.93 µM
- GI50 (SNB-75 CNS): 1.6 µM
- TGI (SNB-75 CNS): 3.88 µM
- GI50 (HOP-92 NSCLC): 1.44 µM
- TGI (HOP-92 NSCLC): 3.3 µM
- GI50 (SR leukemia): 1.96 µM
- TGI (SR leukemia): 4.79 µM
- GI50 (A498 renal): 3.36 µM
- TGI (A498 renal): 11.9 µM
- GI50 (HT29 colon): 1.86 µM
- TGI (HT29 colon): 3.67 µM
- GI50 (A549 NSCLC): 1.94 µM
- TGI (A549 NSCLC): 4.38 µM
- GI50 (NCI-H23 lung): 2.46 µM
- TGI (NCI-H23 lung): 6.52 µM
- GI50 (SW-620 colon): 1.73 µM
- TGI (SW-620 colon): 3.23 µM
- GI50 (OVCAR-5 ovarian): 2.16 µM
- TGI (OVCAR-5 ovarian): 5.13 µM
- GI50 (T-47D breast): 1.96 µM
- TGI (T-47D breast): 4.93 µM
- GI50 (RPMI-8226 leukemia): 1.83 µM
- TGI (RPMI-8226 leukemia): 4.38 µM
- GI50 (IGROV1 ovarian): 2.27 µM
- TGI (IGROV1 ovarian): 5.29 µM
- GI50 (UO-31 renal): 1.62 µM
- TGI (UO-31 renal): 3.23 µM
- GI50 (SK-MEL-2 melanoma): 1.76 µM
- TGI (SK-MEL-2 melanoma): 3.47 µM
- GI50 (SNB-19 CNS): 2.9 µM
- TGI (SNB-19 CNS): 9.8 µM
- GI50 (MDA-MB-231 breast): 1.85 µM
- TGI (MDA-MB-231 breast): 3.89 µM
- GI50 (CCRF-CEM leukemia): 2.76 µM
- TGI (CCRF-CEM leukemia): 13.7 µM
- GI50 (ACHN renal): 1.86 µM
- TGI (ACHN renal): 3.56 µM
- GI50 (DU-145 prostate): 2.11 µM
- TGI (DU-145 prostate): 4.32 µM
- GI50 (SN12C renal): 2.74 µM
- TGI (SN12C renal): 8.65 µM
- GI50 (RXF 393 renal): 1.64 µM
- TGI (RXF 393 renal): 3.35 µM
- GI50 (786-0 renal): 1.86 µM
- TGI (786-0 renal): 3.38 µM
- GI50 (OVCAR-4 ovarian): 2.74 µM
- TGI (OVCAR-4 ovarian): 8.69 µM
- GI50 (SF-295 CNS): 1.93 µM
- TGI (SF-295 CNS): 3.95 µM
- GI50 (HS 578T breast): 1.92 µM
- TGI (HS 578T breast): 4.7 µM
- GI50 (MOLT-4 leukemia): 2.98 µM
- TGI (MOLT-4 leukemia): 9.5 µM
- GI50 (SF-539 CNS): 1.67 µM
- TGI (SF-539 CNS): 3.09 µM
- GI50 (K-562 leukemia): 2.42 µM
- TGI (K-562 leukemia): 17.5 µM
- GI50 (UACC-257 melanoma): 1.64 µM
- TGI (UACC-257 melanoma): 3.23 µM
- GI50 (SK-MEL-28 melanoma): 1.84 µM
- TGI (SK-MEL-28 melanoma): 3.37 µM
- GI50 (KM12 colon): 1.86 µM
- TGI (KM12 colon): 3.49 µM
- GI50 (EKVX NSCLC): 2.07 µM
- TGI (EKVX NSCLC): 5.29 µM

Compound: COc1cc(/C=N/n2cnc3oc(-c4ccccc4)cc3c2=N)cc(CN2CCCC2)c1O
- GI50 (SK-MEL-5 melanoma): 3.49 µM
- TGI (SK-MEL-5 melanoma): 15.9 µM
- GI50 (NCI-H226 lung): 5.84 µM
- TGI (NCI-H226 lung): 34.1 µM
- GI50 (TK-10 renal): 26.4 µM
- TGI (TK-10 renal): 49.2 µM
- GI50 (NCI/ADR-RES ovarian): 1.96 µM
- TGI (NCI/ADR-RES ovarian): 4.04 µM
- GI50 (PC-3 prostate): 1.5 µM
- TGI (PC-3 prostate): 3.13 µM
- GI50 (BT-549 breast): 23.6 µM
- TGI (BT-549 breast): 58.4 µM
- GI50 (UACC-62 melanoma): 19.6 µM
- TGI (UACC-62 melanoma): 40.8 µM
- GI50 (SNB-75 CNS): 0.856 µM
- TGI (SNB-75 CNS): 2.26 µM
- GI50 (HOP-92 NSCLC): 1.92 µM
- TGI (HOP-92 NSCLC): 13 µM
- GI50 (MDA-MB-435): 1.69 µM
- TGI (MDA-MB-435): 3.19 µM
- GI50 (A498 renal): 12.9 µM
- TGI (A498 renal): 40.2 µM
- GI50 (OVCAR-5 ovarian): 1.67 µM
- TGI (OVCAR-5 ovarian): 3.21 µM
- GI50 (HL-60(TB) leukemia): 3.51 µM
- TGI (HL-60(TB) leukemia): 14.2 µM
- GI50 (T-47D breast): 1.96 µM
- TGI (T-47D breast): 4.69 µM
- GI50 (RPMI-8226 leukemia): 2.08 µM
- TGI (RPMI-8226 leukemia): 4.82 µM
- GI50 (UO-31 renal): 1.42 µM
- TGI (UO-31 renal): 3.08 µM
- GI50 (SK-MEL-2 melanoma): 21.2 µM
- TGI (SK-MEL-2 melanoma): 47.3 µM
- GI50 (MDA-MB-231 breast): 1.49 µM
- TGI (MDA-MB-231 breast): 2.9 µM
- GI50 (CCRF-CEM leukemia): 1.96 µM
- TGI (CCRF-CEM leukemia): 5.75 µM
- GI50 (ACHN renal): 1.61 µM
- TGI (ACHN renal): 3.18 µM
- GI50 (SK-OV-3 ovarian): 18 µM
- TGI (SK-OV-3 ovarian): 38.5 µM
- GI50 (DU-145 prostate): 1.83 µM
- TGI (DU-145 prostate): 3.35 µM
- GI50 (SN12C renal): 1.58 µM
- TGI (SN12C renal): 3.25 µM
- GI50 (RXF 393 renal): 1.35 µM
- TGI (RXF 393 renal): 3.43 µM
- GI50 (CAKI-1 renal): 1.4 µM
- TGI (CAKI-1 renal): 2.88 µM
- GI50 (NCI-H522 lung): 2.22 µM
- TGI (NCI-H522 lung): 5.79 µM
- GI50 (SF-295 CNS): 1.89 µM
- TGI (SF-295 CNS): 3.9 µM
- GI50 (HS 578T breast): 13.5 µM
- TGI (HS 578T breast): 34 µM
- GI50 (MOLT-4 leukemia): 2.18 µM
- TGI (MOLT-4 leukemia): 6.49 µM
- GI50 (HOP-62 NSCLC): 2.02 µM
- TGI (HOP-62 NSCLC): 5.04 µM
- GI50 (SF-539 CNS): 1.75 µM
- TGI (SF-539 CNS): 3.46 µM
- GI50 (UACC-257 melanoma): 20.5 µM
- TGI (UACC-257 melanoma): 43.8 µM
- GI50 (SK-MEL-28 melanoma): 1.82 µM
- TGI (SK-MEL-28 melanoma): 3.56 µM
- GI50 (MALME-3M melanoma): 1.9 µM
- TGI (MALME-3M melanoma): 3.96 µM
- GI50 (EKVX NSCLC): 1.83 µM
- TGI (EKVX NSCLC): 3.77 µM
